From the supplement of paper PMC10307832

Key:
Assay in all cases: relative viability (nuclei count vs DMSO), 5 days (fraction); higher = more cells survive
AZ505 + Phenformin = compound: C1CCC(CC1)N(CCNCCC2=C3C(=C(C=C2)O)NC(=O)CO3)C(=O)CCNCCC4=CC(=C(C=C4)Cl)Cl [AZ505] + N=C(N)NC(=N)NCCc1ccccc1 [Phenformin] (partner 250 µM)
How it was run: (§1)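 Lung cancer cell lines in 1536-well plates were dosed by pin tool the day after seeding, either with one drug alone or with a fixed anchor-drug dose plus five library-drug doses (not always all listed) in √10 steps. After 5 days, cells were fixed and their nuclei stained in one step (final 0.05% Triton X-100, 1% formaldehyde, 1 ug/ml Hoechst), then counted on 4× images. Relative viability is the nuclei count in treated wells divided by that in vehicle wells. Values are medians of duplicate plates.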

Dactolisib + Palbociclib = compound: Cn1c(=O)n(-c2ccc(C(C)(C)C#N)cc2)c2c3cc(-c4cnc5ccccc5c4)ccc3ncc21 [Dactolisib] + CC(=O)c1c(C)c2cnc(Nc3ccc(N4CCNCC4)cn3)nc2n(C2CCCC2)c1=O [Palbociclib] (partner 0.5 µM)
How it was run: as §1

Dactolisib + OSI-027 = compound: Cn1c(=O)n(-c2ccc(C(C)(C)C#N)cc2)c2c3cc(-c4cnc5ccccc5c4)ccc3ncc21 [Dactolisib] + COc1cccc2cc(-c3nc([C@H]4CC[C@H](C(=O)O)CC4)n4ncnc(N)c34)[nH]c12 [OSI-027] (partner 0.5 µM)
How it was run: as §1

Dactolisib + Luminespib = compound: Cn1c(=O)n(-c2ccc(C(C)(C)C#N)cc2)c2c3cc(-c4cnc5ccccc5c4)ccc3ncc21 [Dactolisib] + CCNC(=O)c1noc(-c2cc(C(C)C)c(O)cc2O)c1-c1ccc(CN2CCOCC2)cc1 [Luminespib] (partner 0.01 µM)
How it was run: as §1

Cell Line: UMC-11
- relative viability (AZ505 + Phenformin; first compound 0.08 µM): 0.305
- relative viability (AZ505 + Phenformin; first compound 0.253 µM): 0.323
- relative viability (AZ505 + Phenformin; first compound 0.8 µM): 0.328
- relative viability (AZ505 + Phenformin; first compound 2.53 µM): 0.328
- relative viability (AZ505 + Phenformin; first compound 8 µM): 0.325
- relative viability (Dactolisib + Palbociclib; first compound 0.002 µM): 0.331
- relative viability (Dactolisib + Palbociclib; first compound 0.006325 µM): 0.311
- relative viability (Dactolisib + Palbociclib; first compound 0.02 µM): 0.344
- relative viability (Dactolisib + Palbociclib; first compound 0.06325 µM): 0.318
- relative viability (Dactolisib + Palbociclib; first compound 0.2 µM): 0.305
- relative viability (Dactolisib + OSI-027; first compound 0.002 µM): 0.432
- relative viability (Dactolisib + OSI-027; first compound 0.006325 µM): 0.537
- relative viability (Dactolisib + OSI-027; first compound 0.02 µM): 0.394
- relative viability (Dactolisib + OSI-027; first compound 0.06325 µM): 0.283
- relative viability (Dactolisib + OSI-027; first compound 0.2 µM): 0.248
- relative viability (Dactolisib + Luminespib; first compound 0.002 µM): 1.1
- relative viability (Dactolisib + Luminespib; first compound 0.006325 µM): 0.781
- relative viability (Dactolisib + Luminespib; first compound 0.02 µM): 0.737
- relative viability (Dactolisib + Luminespib; first compound 0.06325 µM): 0.261
- relative viability (Dactolisib + Luminespib; first compound 0.2 µM): 0.224
